Measurements: patent US8178104B2, “Methods and compositions for targeting gC1qR/p32” (Sanford-Burnham Medical Research Institute, priority 2006, dated 2012)
Bridge positions count the residues as written; N and C are the ends. Ends that are not written are not given here. * marks the point of attachment. FITC = O=C1OC2(c3ccc(O)cc3Oc3cc(O)ccc32)c2ccc(NC(=S)*)cc21

Key:
MDA-MB-435 cells = experiment: FACS analysis of FITC-peptide binding to MDA-MB-435 cells; assay type: cell-based; conditions: 10 μM, 1 hour at 4° C.; compared with Lyp-1
Method: MDA-MB-435 cells were transiently transfected with gC1qR/p32-specific or control siRNAs. […] The amount of fluorescence in living cells was analyzed by FACS. Cells incubated in the absence of peptide served as FITC negative control. Compared to control siRNA transfected cells, down-regulation of gC1qR/p32 expression (in the presence of gC1qR/p32 siRNA) caused a shift in the peak of Lyp-1 fluorescence but not control peptide fluorescence.
Cultured cells were detached with cell enzyme-free dissociation buffer (Gibco/Invitrogen) and collected in PBS containing 1% BSA (PBSB). Single cells suspensions from tumors were obtained as indicated above. For FACS staining, 2.5×10^5 cells were resuspended in 100 μl of PBSB and incubated with polyclonal anti-full-length gC1qR/p32 or rabbit IgG (20 μg/ml) in PBSB for 30 min at 4° C. The cells were washed in PBSB and stained with goat anti rabbit Alexa 488 (2.5 μg/ml) for 30 min at 4° C. For FACS analysis of bound FITC-peptides, cultured cells were detached as above and incubated with 10 μM of FITC-peptides in 10% FCS/DMEM for 1 hour at 4° C. After washes with PBSB, the cells were resuspended in PBS containing 2 μg/ml of propidium iodide (PI, Molecular Probes/Invitrogen) to distinguish between live and dead cells, and 10,000 cells per sample were analyzed using a BD Biosciences FACSort.

gC1qR/p32 = molecular target: T1, gC1qR/p32 (Homo sapiens, UniProt Q07021); experiment: Pull-down assay with biotinylated peptides from tumor cell extracts; assay type: binding; conditions: extracts of cultured tumor cells (MDA-MB-435); anti-gC1qR/p32 immunoblot
T1 construct: the specific band represents the mature form of a protein known as gC1qR/p32; endogenous in cells; host or cells: MDA-MB-435 cultured cells; MDA-MB-435 tumor xenografts
T1 sequence (Q07021 74-282): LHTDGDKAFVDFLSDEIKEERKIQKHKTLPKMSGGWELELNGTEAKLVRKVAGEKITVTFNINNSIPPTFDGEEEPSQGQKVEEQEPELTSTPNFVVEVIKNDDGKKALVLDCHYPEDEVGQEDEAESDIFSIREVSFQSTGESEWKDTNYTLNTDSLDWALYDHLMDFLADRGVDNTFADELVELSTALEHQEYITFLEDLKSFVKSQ
Method: Pull down assays were performed with biotinylated Lyp-1 peptide (SEQ ID NO:1, CGNKRTRGC) from protein extracts derived from MDA-MB-435 cultured cells or MDA-MB-435 tumor xenografts. A tumor homing peptide, CREKA (SEQ ID NO:3), and a peptide CRV which resembles Lyp-1 in its amino acid composition and cyclic structure (SEQ ID NO:4, CRVRTRSGC), were used as negative controls. The Lyp-1 bound proteins were visualized using silver staining and immunoblotting. […] The arrow indicates a specific 33 kD band, which was identified as gC1qR/p32 by mass spectrometry. […] The antibody recognizes a band of 33 kD in the total proteins lysate and in the Lyp-1 pull down. Anti gC1qR/p32 reactive bands are not detected in the pull downs from both control peptides. […] The monoclonal antibody against gC1qR/p32 recognized a 75 kD and a 33 kD band only in the Lyp-1 peptide pull down.
To identify the receptor for the LyP-1 peptide, biotin-labeled LyP-1 and control peptides were incubated with extracts of MDA-MB-435 cells, a cell line that binds and internalizes LyP-1 (Laakkonen et al., 2004). LyP-1 bound a specific band in the 30 kDa range that was not seen in the controls (FIG. 3A, left panel), which were the pentapeptide CREKA (SEQ ID NO: 3) (Simberg et al., 2007) and the nonapeptide CRVRTRSGC (SEQ ID NO: 4), which resembles LyP-1 in its amino acid composition and cyclic structure. […] LyP-1 affinity isolation also yielded gC1qR/p32 from cultured BT549 breast carcinoma cells and from extracts of MDA-MB-435 xenograft tumors.
Streptavidin agarose beads (Sigma-Aldrich) were resuspended in 2 volumes of phosphate buffer saline (PBS) and conjugated to 3 μg/10 μl beads of biotynilated peptides for 2 h on ice. After incubation, beads were washed three times with PBS/50 mM n-octyl-β-D glucopyranoside (Calbiochem; San Diego, Calif.) to remove free peptides. […] Bands that appeared in the LyP-1 but not control peptide pull down were cut out, digested with trypsin, and the resulting peptides were analyzed by matrix-assisted laser desorption ionization-time of flight (MALDI-TOF) mass spectrometry. […]

tumors = conditions: cited from earlier work
HL-60 leukemia cells = conditions: cited from earlier work
C8161 melanoma cells = conditions: cited from earlier work
MDA-MB-435 = conditions: cited from earlier work
BT549 = conditions: cited from earlier work
[1] = molecular target: T2, purified gC1qR/p32 protein (Homo sapiens, UniProt Q07021); experiment: In vitro phage binding to purified gC1qR/p32 coated on microtiter wells; conditions: 5 μg/ml coated protein, 16 h at 37° C., plaque assay
T2 sequence (Q07021 74-282): T1 sequence (Q07021 74-282)
Method: Purified gC1qR/p32 or BSA, as a control, were coated onto microtiter wells (5 μg/ml) and targeted for binding with 10^8 pfu of insertless phage, Lyp-1 phage, or control phage carrying another tumor homing peptide (CREKA, SEQ ID NO:3). After 16 hours of incubation at 37° C., bound phages were eluted and quantified by plaque assay. The results are show in FIG. 2(a). Results are expressed as fold of Lyp-1 and CREKA (SEQ ID NO:3) phages recovered over insertless phage and are representative of five independent experiments.
Microtiter wells (Costar, Corning, N.Y.) were coated overnight at 4° C. with 5 μg/ml of either purified gC1qR/p32 or BSA (Sigma-Aldrich) in 100 μl/well of carbonate buffer (15 mM sodium carbonate, 35 mM sodium bicarbonate). Wells were washed three times with TBS and blocked with Pierce Superblock buffer according to the manufactures instructions. 10^8 pfu of LyP-1 and control phages were added to the wells in 100 μl/well of TBS/0.05% tween-20 and incubated for 16 h at 37° C. After 6 washes in TBS/0.05% tween-20, bound phages were eluted with 200 μl of Tris-HCl 1M pH 7.5/0.5% SDS for 30 min and subsequently quantified by plaque assay. […] Cells were washed 5 times with PBS/1% BSA and bound phages were quantified by plaque assay.

mitochondrial membranes = conditions: 10 μM; cited from earlier work
MDA-MB-435 tumors = experiment: Tumor localization of intravenously injected FITC-LyP-1 peptide; assay type: in vivo, mice; conditions: circulation 1 hour; p32 immunohistochemical staining
Text: Tumor localization of gC1qR/p32 and Lyp-1 peptide were visualized. gC1qR/p32, lymphatic or blood vessels, podoplanin and Meca32/CD31 were stained with fluorescently-labeled antibodies in MDA-MB-435 tumor xenografts. Polyclonal anti-gC1qR/p32 antibody recognizes cell clusters that lack blood vessels but contain lymphatics, or cells lining vessel-like structures positive for Podoplanin but not CD31 or Meca32. Fluorescein-conjugated Lyp-1 peptide was i.v. injected into mice bearing MDA-MB-435 tumors and allowed to circulate for 1 hour before removal of the tumor for gC1qR/p32 immunohistochemical analysis. Lyp-1 peptide localizes in gC1qR/p32-positive patches within the tumor.

ARALPSQRSR [control peptide with same overall charge as LyP-1]
binding of FITC conjugated peptide to cells (MDA-MB-435 cells): less binding ability

CGNKRTRGC (disulfide 1-9 (inferred)) [LyP-1, tumor homing cyclic nonapeptide]
gC1qR/p32 bound/pulled down by biotinylated peptide (gC1qR/p32): specifically bound
TUNEL-positive lesions in tumors (tumors; in vivo peptide treatment): induced TUNEL-positive lesions
tumor growth (tumors; systemic administration): inhibits tumor growth
LyP-1 binding (HL-60 leukemia cells): not to significantly bind
LyP-1 binding (C8161 melanoma cells): not to significantly bind
LyP-1 binding (MDA-MB-435): strong
LyP-1 binding (BT549): strong

CNRRTKAGC (displayed on phage) [LyP-2]
phage binding to purified gC1qR/p32 relative to insertless control phage [1]: did not significantly bind

CREKA [tumor homing pentapeptide used as negative control, as peptide and on phage]
gC1qR/p32 bound/pulled down by biotinylated peptide (gC1qR/p32): not detected
phage binding to purified gC1qR/p32 relative to insertless control phage [1]: essentially no interaction

CRVRTRSGC (disulfide 1-9 (inferred)) [control nonapeptide resembling Lyp-1 in amino acid composition and cyclic structure]
gC1qR/p32 bound/pulled down by biotinylated peptide (gC1qR/p32): not detected

D(KLAKLAK)2
mitochondrial swelling (mitochondrial membranes): marked mitochondrial swelling

FITC-LyP-1: fluorescein-conjugated LyP-1 peptide ({FITC}-CGNKRTRGC; disulfide 1-9 (inferred))
tumor localization of intravenously injected peptide (MDA-MB-435 tumors): accumulated in tumor areas with high expression levels of gC1qR/p32
